Common to all, as to assay: Kinase panel profiling at 1 µmol/L (MSA or IMAP), percentage inhibition
Holding throughout (format): biochemical

The target in test [1] is panel of 255 wild-type kinases (Homo sapiens, UniProt Q9H1R3). Conditions: kinase skMLCK; 1 µmol/L single concentration; read-out: %-inhibition at 1 µmol/L, skMLCK.
Test [2] addresses panel of 255 wild-type kinases (Homo sapiens, UniProt P51957). Particulars: NEK4; 1 µmol/L single concentration; read-out: %-inhibition, NEK4.
For test [3], the target named is panel of 255 wild-type kinases (Homo sapiens, UniProt Q9UM73). Particulars: ALK kinase assay; 1 µmol/L single concentration; read-out: %-inhibition ALK.
Test [4] concerns the target panel of 255 wild-type kinases (Homo sapiens, UniProt Q16288). Conditions: kinase TRKC; 1 µmol/L single concentration; read-out: %-inhibition at 1 µmol/L, TRKC.
Test [5] deals with panel of 255 wild-type kinases (Homo sapiens, UniProt P41240). Conditions: kinase CSK; 1 µmol/L single concentration; read-out: %-inhibition at 1 µmol/L, CSK.
Test [6] concerns the target panel of 255 wild-type kinases (Homo sapiens, UniProt Q86Z02). Conditions: kinase HIPK1; 1 µmol/L single concentration; read-out: %-inhibition at 1 µmol/L, HIPK1.
Test [7] deals with panel of 255 wild-type kinases (Homo sapiens, UniProt P29317). Particulars: kinase EPHA2; 1 µmol/L single concentration; read-out: %-inhibition at 1 µmol/L, EPHA2.
Test [8] concerns the target T1, panel of 255 wild-type kinases (Homo sapiens, UniProt Q9BXA7).
T1 sequence (Q9BXA7 1-367): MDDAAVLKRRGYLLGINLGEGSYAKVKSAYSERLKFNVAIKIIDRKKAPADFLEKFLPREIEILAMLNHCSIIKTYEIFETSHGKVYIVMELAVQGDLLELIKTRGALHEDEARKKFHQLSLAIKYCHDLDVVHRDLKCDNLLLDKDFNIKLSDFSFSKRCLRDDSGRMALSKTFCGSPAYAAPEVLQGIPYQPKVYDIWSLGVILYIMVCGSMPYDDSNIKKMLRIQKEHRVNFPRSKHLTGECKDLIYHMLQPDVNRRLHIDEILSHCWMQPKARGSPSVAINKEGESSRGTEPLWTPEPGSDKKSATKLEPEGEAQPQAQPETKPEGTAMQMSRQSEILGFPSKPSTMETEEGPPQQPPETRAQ
Conditions: kinase TSSK1; 1 µmol/L single concentration; read-out: %-inhibition at 1 µmol/L, TSSK1.

Test [9] has as its target panel of 255 wild-type kinases (Homo sapiens, UniProt P78362). Conditions: kinase SRPK2; 1 µmol/L single concentration; read-out: %-inhibition at 1 µmol/L, SRPK2.
For test [10], the target named is panel of 255 wild-type kinases (Homo sapiens, UniProt Q04912). Particulars: kinase RON; 1 µmol/L single concentration; read-out: %-inhibition at 1 µmol/L, RON.
The target of test [11] is panel of 255 wild-type kinases (Homo sapiens, UniProt Q13882). Conditions: BRK kinase assay; 1 µmol/L single concentration; read-out: %-inhibition BRK.
The target in test [12] is panel of 255 wild-type kinases (Homo sapiens, UniProt Q9HCP0). Particulars: kinase CK1γ1; 1 µmol/L single concentration; read-out: %-inhibition at 1 µmol/L, CK1γ1.
Test [13] addresses panel of 255 wild-type kinases (Homo sapiens, UniProt Q15759). Conditions: p38β; 1 µmol/L single concentration; read-out: %-inhibition, p38β.
The target in test [14] is T2, panel of 255 wild-type kinases (Homo sapiens, UniProt Q9HBY8).
T2 sequence (Q9HBY8 1-367): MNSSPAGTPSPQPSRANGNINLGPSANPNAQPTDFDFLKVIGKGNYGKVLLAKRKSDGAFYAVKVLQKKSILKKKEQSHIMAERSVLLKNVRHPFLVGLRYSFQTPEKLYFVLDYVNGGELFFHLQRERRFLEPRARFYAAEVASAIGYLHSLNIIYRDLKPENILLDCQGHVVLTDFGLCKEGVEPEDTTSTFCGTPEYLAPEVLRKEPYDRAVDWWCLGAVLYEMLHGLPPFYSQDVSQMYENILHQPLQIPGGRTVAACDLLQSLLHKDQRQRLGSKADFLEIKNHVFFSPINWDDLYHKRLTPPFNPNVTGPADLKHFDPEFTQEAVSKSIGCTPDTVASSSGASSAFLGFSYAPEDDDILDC
Particulars: kinase SGK2; 1 µmol/L single concentration; read-out: %-inhibition at 1 µmol/L, SGK2.

For test [15], the target named is panel of 255 wild-type kinases (Homo sapiens, UniProt O94804). Conditions: kinase LOK; 1 µmol/L single concentration; read-out: %-inhibition at 1 µmol/L, LOK.
Test [16] has as its target panel of 255 wild-type kinases (Homo sapiens, UniProt Q9UKE5). Conditions: kinase TNIK; 1 µmol/L single concentration; read-out: %-inhibition at 1 µmol/L, TNIK.
Test [17] concerns the target panel of 255 wild-type kinases (Homo sapiens, UniProt Q7KZI7). Conditions: MARK2; 1 µmol/L single concentration; read-out: %-inhibition, MARK2.
Test [18] concerns the target panel of 255 wild-type kinases (Homo sapiens, UniProt Q13554). Particulars: CaMK2β kinase assay; 1 µmol/L single concentration; read-out: %-inhibition CaMK2β.

Consider `CN1CCN(c2ccc(C(=O)Nc3n[nH]c4ccc(Cc5cc(F)cc(F)c5)cc34)c(NC3CCOCC3)c2)CC1` [entrectinib], for which the inhibition at 1 µM in [1] is 1.33%; in [2], 1.25%; in test [3], 100%; in test [4], 100%; in [5], 8%; in [6], 11%. In addition, the inhibition at 1 µM was 37% in test [7]; 8% in [8]; 21% in test [9]; 33% in [10]; 88% in test [11]; -1.18% in test [12]. Besides, the inhibition at 1 µM is 7.47% in test [13]; -3.18% in test [14]; 28% in test [15]; 20% in [16]; 9% in test [17]; 13% in [18].
Turning to `CO[C@]1(C(=O)N[C@@H](C)c2ccc(-n3cc(F)cn3)nc2)CC[C@H](c2nc(C)cc(Nc3cc(C)[nH]n3)n2)CC1` [pralsetinib], the inhibition at 1 µM came to 5% in [1]; 2.56% in test [2]; 35% in test [3]; 98% in [4]; 0.35% in test [5]; 13% in test [6]. The inhibition at 1 µM in test [7] is 62%; in [8], 4.54%; in [9], -2.72%; in test [10] it was 2.6%; in test [11], 49%; in test [12], 1.83%. The inhibition at 1 µM is -3.42% in test [13]; 11% in test [14]; 13% in test [15]; 6.58% in test [16]; -15% in test [17]; -0.895% in test [18].
For `CCn1c(=O)c(-c2cc(NC(=O)Nc3ccccc3)c(F)cc2Br)cc2cnc(NC)cc21` [ripretinib], the inhibition at 1 µM is 69% in test [1]; 19% in [2]; 2.68% in test [3]; 54% in [4]; 50% in [5]; -5.27% in [6]. The inhibition at 1 µM in test [7] is 100%; in test [8] it was -4.3%; in test [9], -2.82%; in [10], 1.39%; in test [11], 36%; in [12] it was -0.282%. The inhibition at 1 µM is 88% in test [13]; -5% in test [14]; 53% in [15]; 28% in test [16]; -2.22% in test [17]; 1.19% in [18].
Consider `Cc1nc(NC(=O)N2CCC[C@H]2C(N)=O)sc1-c1ccnc(C(C)(C)C(F)(F)F)c1` [alpelisib], for which the inhibition at 1 µM in test [1] was -3.8%; in [2] it was -3%; in test [3] it was 1.84%; in test [4], 2.52%; in [5], -0.289%; in [6], 9%. Further, the inhibition at 1 µM in test [7] was -6%; in test [8], -5%; in test [9], -1.61%; in test [10], 7%; in test [11], 2.75%; in [12], -1.77%. In addition, the inhibition at 1 µM in [13] was 1%; in test [14], -2%; in test [15], -7%; in test [16], 4.6%; in test [17], -0.36%; in test [18] it was -7%.

These data come from article PMC9516332 (Frontiers in Oncology, 2022).
